Patent publication US8664257B2, “Oxygen-substituted 3-heteroaroylamino-propionic acid derivatives and their use as pharmaceuticals” (Sanofi, priority 2010, dated 2014)
pIC50: −log10 of the molar value.

Molecular target: T1, Recombinant human cathepsin A (Homo sapiens, UniProt P10619)
T1 construct: Recombinant human cathepsin A (residues 29-480, with a C-terminal 10-His tag); 10-His (C); purchased R&D Systems 1049-SE
T1 sequence (P10619 29-312 limits assumed): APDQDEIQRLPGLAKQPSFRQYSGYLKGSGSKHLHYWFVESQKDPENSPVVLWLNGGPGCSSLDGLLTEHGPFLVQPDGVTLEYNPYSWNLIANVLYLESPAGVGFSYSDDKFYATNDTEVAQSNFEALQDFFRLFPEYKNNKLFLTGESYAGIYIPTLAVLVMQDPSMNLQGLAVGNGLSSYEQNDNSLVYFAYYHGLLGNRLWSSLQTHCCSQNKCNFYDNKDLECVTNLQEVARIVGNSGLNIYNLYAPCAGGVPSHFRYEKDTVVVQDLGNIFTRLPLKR
T1 sequence (P10619 327-480 limits assumed): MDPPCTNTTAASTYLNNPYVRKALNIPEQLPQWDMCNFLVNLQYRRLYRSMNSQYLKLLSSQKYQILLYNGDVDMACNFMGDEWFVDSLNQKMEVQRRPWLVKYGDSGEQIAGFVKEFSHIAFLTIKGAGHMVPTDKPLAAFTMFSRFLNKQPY
Test: Cathepsin A inhibitory activity
Type: biochemical
Conditions: read-out: Activity (2): Cathepsin A inhibitory activity (IC50 class)
Method in brief: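 Read-out was microfluidic separation of cleaved vs. uncleaved Bodipy FL-bradykinin (2 μM), giving turnover, % inhibition and IC50. Compound and 833 ng/ml enzyme met for 15 min RT in pH 5.5 MES/DTT before substrate (15 min RT). The 29-480 His-tagged human enzyme was first activated by cathepsin L, then E-64 (10 μM).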

| SMILES | pIC50 |
| --- | --- |
| COc1cc(C(=O)N[C@@H](CC(=O)O)c2ccccc2Cl)nn1-c1ccccc1F [Example 676] | > 7.00 |
| COc1cc(C(=O)NC(CC(=O)O)c2ccc(F)cc2C)nn1-c1ccccc1F (centres unmarked) [Example 677] | > 7.00 |
| COc1cc(C(=O)NC(CC(=O)O)c2ccc(F)cc2)nn1-c1ccccc1F (centres unmarked) [Example 678] | 6.00 to 7.00 |
| COc1cc(C(=O)N[C@@H](CC(=O)O)c2ccccc2F)nn1-c1ccccc1F [Example 679] | 6.00 to 7.00 |
| COc1cc(C(=O)N[C@@H](CC(=O)O)c2ccccc2C(F)(F)F)nn1-c1ccccc1F [Example 680, (S)-3-{[1-(2-Fluoro-phenyl)-5-methoxy-1H-pyrazole-3-carbonyl]-amino}-3-(2-trifluoromethyl-phenyl)-propionic acid] | 6.00 to 7.00 |
| COc1cc(C(=O)N[C@@H](CC(=O)O)c2cccc(Cl)c2Cl)nn1-c1ccccc1F [Example 681] | > 7.00 |
| COc1cc(C(=O)NC(CC(=O)O)c2cccc(C)c2C)nn1-c1ccccc1F (centres unmarked) [Example 682, 3-(2,3-Dimethyl-phenyl)-3-{[1-(2-fluoro-phenyl)-5-methoxy-1H-pyrazole-3-carbonyl]-amino}-propionic acid] | > 7.00 |
| COc1cc(C(=O)NC(CC(=O)O)c2cc(Cl)ccc2Cl)nn1-c1ccccc1F (centres unmarked) [Example 683] | > 7.00 |
| Cc1c(F)cccc1C(CC(=O)O)NC(=O)c1cc(OCC2CC2)n(-c2ccccc2F)n1 (centres unmarked) [Example 684, 3-{[5-Cyclopropylmethoxy-1-(2-fluoro-phenyl)-1H-pyrazole-3-carbonyl]-amino}-3-(3-fluoro-2-methyl-phenyl)-propionic acid] | > 7.00 |
| O=C(O)C[C@H](NC(=O)c1cc(OCC2CC2)n(-c2ccccc2F)n1)c1ccccc1 [Example 685] | > 7.00 |
| Cc1ccc(C(CC(=O)O)NC(=O)c2cc(OCC3CC3)n(-c3ccccc3F)n2)c(C)c1 (centres unmarked) [Example 686] | > 7.00 |
| COc1ccccc1[C@H](CC(=O)O)NC(=O)c1cc(OCC2CC2)n(-c2ccccc2F)n1 [Example 687] | 6.00 to 7.00 |
| N#Cc1ccc([C@H](CC(=O)O)NC(=O)c2cc(OCC3CC3)n(-c3ccccc3F)n2)cc1 [Example 688] | > 7.00 |
| COc1cccc([C@H](CC(=O)O)NC(=O)c2cc(OCC3CC3)n(-c3ccccc3F)n2)c1 [Example 689] | 6.00 to 7.00 |
| Cc1cccc([C@H](CC(=O)O)NC(=O)c2cc(OCC3CC3)n(-c3ccccc3F)n2)c1 [Example 690, (S)-3-{[5-Cyclopropylmethoxy-1-(2-fluoro-phenyl)-1H-pyrazole-3-carbonyl]-amino}-3-m-tolyl-propionic acid] | > 7.00 |
| O=C(O)C[C@H](NC(=O)c1cc(OCC2CC2)n(-c2ccccc2F)n1)c1ccc(Cl)cc1 [Example 691] | 6.00 to 7.00 |
| COc1ccc(C(CC(=O)O)NC(=O)c2cc(OCC3CC3)n(-c3ccccc3F)n2)c(C)c1 (centres unmarked) [Example 692] | > 7.00 |
| O=C(O)C[C@H](NC(=O)c1cc(OCC2CC2)n(-c2ccccc2F)n1)c1ccc(Cl)cc1Cl [Example 693] | 6.00 to 7.00 |
| O=C(O)C[C@H](NC(=O)c1cc(OCC2CC2)n(-c2ccccc2F)n1)c1ccc(C(F)(F)F)cc1 [Example 694] | > 7.00 |
| Cc1ccc([C@H](CC(=O)O)NC(=O)c2cc(OCC3CC3)n(-c3ccccc3F)n2)cc1 [Example 695] | > 7.00 |
| O=C(O)C[C@H](NC(=O)c1cc(OCC2CC2)n(-c2ccccc2F)n1)c1ccccc1Cl [Example 696] | > 7.00 |
| O=C(O)CC(NC(=O)c1cc(OCC2CC2)n(-c2ccccc2F)n1)c1ccc(F)cc1 (centres unmarked) [Example 698] | 6.00 to 7.00 |

| SMILES | pIC50 |
| --- | --- |
| O=C(O)C[C@H](NC(=O)c1cc(OCC2CC2)n(-c2ccccc2F)n1)c1ccccc1F [Example 699] | 6.00 to 7.00 |
| Cc1ccccc1[C@H](CC(=O)O)NC(=O)c1cc(OCC(=O)C(C)(C)C)n(-c2ccccc2F)n1 [Example 700, (S)-3-{[5-(3,3-Dimethyl-2-oxo-butoxy)-1-(2-fluoro-phenyl)-1H-pyrazole-3-carbonyl]-amino}-3-o-tolyl-propionic acid] | > 7.00 |
| O=C(O)C[C@H](NC(=O)c1cc(OCC2CC2)n(-c2ccccc2F)n1)c1ccccc1C(F)(F)F [Example 701] | 6.00 to 7.00 |
| O=C(O)C[C@H](NC(=O)c1cc(OCC2CC2)n(-c2ccccc2F)n1)c1cccc(Cl)c1Cl [Example 702] | > 7.00 |
| Cc1cccc(C(CC(=O)O)NC(=O)c2cc(OCC3CC3)n(-c3ccccc3F)n2)c1C (centres unmarked) [Example 703] | > 7.00 |
| O=C(O)CC(NC(=O)c1cc(OCC2CC2)n(-c2ccccc2F)n1)c1cc(Cl)ccc1Cl (centres unmarked) [Example 704] | > 7.00 |
| COc1ccc(C(CC(=O)O)NC(=O)c2cc(OCC3CC3)n(-c3ccccc3F)n2)c(Cl)c1 (centres unmarked) [Example 705] | > 7.00 |
| CCOc1cc(C(=O)NC(CC(=O)O)c2cccc(F)c2C)nn1-c1ccccc1F (centres unmarked) [Example 706] | > 7.00 |
| CCOc1cc(C(=O)N[C@@H](CC(=O)O)c2ccccc2)nn1-c1ccccc1F [Example 707] | 6.00 to 7.00 |
| CCOc1cc(C(=O)NC(CC(=O)O)c2ccc(C)cc2C)nn1-c1ccccc1F (centres unmarked) [Example 708] | > 7.00 |
| CCOc1cc(C(=O)N[C@@H](CC(=O)O)c2ccccc2OC)nn1-c1ccccc1F [Example 709] | 6.00 to 7.00 |
| CCOc1cc(C(=O)N[C@@H](CC(=O)O)c2ccc(C#N)cc2)nn1-c1ccccc1F [Example 710] | 6.00 to 7.00 |
| CCOc1cc(C(=O)N[C@@H](CC(=O)O)c2cccc(OC)c2)nn1-c1ccccc1F [Example 711] | 6.00 to 7.00 |
| CCOc1cc(C(=O)N[C@@H](CC(=O)O)c2cccc(C)c2)nn1-c1ccccc1F [Example 712] | > 7.00 |
| CCOc1cc(C(=O)N[C@@H](CC(=O)O)c2ccc(Cl)cc2)nn1-c1ccccc1F [Example 713] | > 7.00 |
| CCOc1cc(C(=O)NC(CC(=O)O)c2ccc(OC)cc2C)nn1-c1ccccc1F (centres unmarked) [Example 714] | > 7.00 |
| CCOc1cc(C(=O)N[C@@H](CC(=O)O)c2ccc(C(F)(F)F)cc2)nn1-c1ccccc1F [Example 715] | > 7.00 |
| CCOc1cc(C(=O)N[C@@H](CC(=O)O)c2ccc(C)cc2)nn1-c1ccccc1F [Example 716] | > 7.00 |
| CCOc1cc(C(=O)N[C@@H](CC(=O)O)c2ccccc2Cl)nn1-c1ccccc1F [Example 717] | > 7.00 |
| CCOc1cc(C(=O)NC(CC(=O)O)c2ccc(F)cc2C)nn1-c1ccccc1F (centres unmarked) [Example 718] | > 7.00 |
| CCOc1cc(C(=O)NC(CC(=O)O)c2ccc(F)cc2)nn1-c1ccccc1F (centres unmarked) [Example 719] | 6.00 to 7.00 |
| CCOc1cc(C(=O)N[C@@H](CC(=O)O)c2ccccc2F)nn1-c1ccccc1F [Example 720] | > 7.00 |

| SMILES | pIC50 |
| --- | --- |
| CCOc1cc(C(=O)N[C@@H](CC(=O)O)c2ccccc2C(F)(F)F)nn1-c1ccccc1F [Example 721] | 6.00 to 7.00 |
| CCOc1cc(C(=O)N[C@@H](CC(=O)O)c2cccc(Cl)c2Cl)nn1-c1ccccc1F [Example 722] | > 7.00 |
| CCOc1cc(C(=O)NC(CC(=O)O)c2cccc(C)c2C)nn1-c1ccccc1F (centres unmarked) [Example 723] | > 7.00 |
| CCOc1cc(C(=O)NC(CC(=O)O)c2ccc(OC)cc2Cl)nn1-c1ccccc1F (centres unmarked) [Example 724] | > 7.00 |
| CCOc1cc(C(=O)NC(CC(=O)O)c2cccc(F)c2C)nn1-c1ccccc1Cl (centres unmarked) [Example 725] | > 7.00 |
| CCOc1cc(C(=O)N[C@@H](CC(=O)O)c2ccccc2)nn1-c1ccccc1Cl [Example 726] | 6.00 to 7.00 |
| CCOc1cc(C(=O)N[C@@H](CC(=O)O)c2ccccc2C)nn1-c1ccccc1Cl [Example 727] | > 7.00 |
| CCOc1cc(C(=O)NC(CC(=O)O)c2ccc(C)cc2C)nn1-c1ccccc1Cl (centres unmarked) [Example 728] | > 7.00 |
| CCOc1cc(C(=O)N[C@@H](CC(=O)O)c2ccccc2OC)nn1-c1ccccc1Cl [Example 729] | 6.00 to 7.00 |
| CCOc1cc(C(=O)N[C@@H](CC(=O)O)c2ccc(C#N)cc2)nn1-c1ccccc1Cl [Example 730] | 6.00 to 7.00 |
| CCOc1cc(C(=O)N[C@@H](CC(=O)O)c2cccc(OC)c2)nn1-c1ccccc1Cl [Example 731] | 6.00 to 7.00 |
| CCOc1cc(C(=O)N[C@@H](CC(=O)O)c2cccc(C)c2)nn1-c1ccccc1Cl [Example 732] | > 7.00 |
| CCOc1cc(C(=O)N[C@@H](CC(=O)O)c2ccc(Cl)cc2)nn1-c1ccccc1Cl [Example 733] | > 7.00 |
| CCOc1cc(C(=O)N[C@@H](CC(=O)O)c2ccc(C(F)(F)F)cc2)nn1-c1ccccc1Cl [Example 735] | 6.00 to 7.00 |
| CCOc1cc(C(=O)N[C@@H](CC(=O)O)c2ccc(C)cc2)nn1-c1ccccc1Cl [Example 736] | > 7.00 |
| CCOc1cc(C(=O)N[C@@H](CC(=O)O)c2ccccc2Cl)nn1-c1ccccc1Cl [Example 737] | > 7.00 |
| CCOc1cc(C(=O)NC(CC(=O)O)c2ccc(F)cc2C)nn1-c1ccccc1Cl (centres unmarked) [Example 738] | > 7.00 |
| CCOc1cc(C(=O)NC(CC(=O)O)c2ccc(F)cc2)nn1-c1ccccc1Cl (centres unmarked) [Example 739] | 6.00 to 7.00 |
| CCOc1cc(C(=O)N[C@@H](CC(=O)O)c2ccccc2C(F)(F)F)nn1-c1ccccc1Cl [Example 741] | 6.00 to 7.00 |
| CCOc1cc(C(=O)N[C@@H](CC(=O)O)c2cccc(Cl)c2Cl)nn1-c1ccccc1Cl [Example 742] | > 7.00 |
| CCOc1cc(C(=O)NC(CC(=O)O)c2cccc(C)c2C)nn1-c1ccccc1Cl (centres unmarked) [Example 743] | > 7.00 |
